Marks after values point to notes of the source that are not given here.
Columns and labels:
S. aureus ATCC: 6538 = experiment: Bacterial count reduction test (method 1), S. aureus; assay type: cell-based, Staphylococcus aureus
Protocol: (§1) Method 1: Bacterial Count Reduction Test
(§2) The aim of this bacterial count reduction test is to determine suitable preservatives and reaction times for samples injected in the laboratory.
(§3) Staphylococcus aureus, Escherichia coli or Pseudomonas aeruginosa, Candida albicans, Aspergillus brasiliensis
(§4) From a 24-hour CS-angular agar culture (I subculture) of Staphylococcus aureus/Escherichia coli 24-hour CSL-cultures (II subculture) are created. The incubation is carried out at 37° C. The titer of the bacterial suspension is about 10^9 CFU/ml.
(§5) The titres of the respectively produced test organism suspensions are determined by means of a dilution series in physiological NaCl and recorded.
(§6) The samples are displaced with different concentrations of suitable preservatives. For each test bacterium a dilution series is required. The samples are injected individually with the respective test organism suspension and stirred well:
(§7) 25 g samples=0.1 ml bacterial suspension
(§8) 50 g samples=0.2 ml bacterial suspension.
(§9) After the indicated reaction times the samples are firstly stirred homogenously with a sterile glass rod and then spread onto CSA or SA agar. The bacteria samples are spread onto CSA and incubated for 48 hours at 37° C. The mould and yeast samples are spread onto SA agar and incubated for 48 hours at 37° C. (Candida albicans) and at 25° C. (Aspergillus brasiliensis).

P. aeruginosa ATCC: 9027 = experiment: Bacterial count reduction test (method 1), P. aeruginosa; assay type: cell-based, Pseudomonas aeruginosa; settings: o/w-Lotion, initial bacterial count 1.2 × 10^9
Protocol: as §1, §2, §3, §5, §6, §7, §8, §9

[1] = test system: A. brasiliensis ATCC: 16404; experiment: Bacterial count reduction test (method 1), A. brasiliensis; assay type: cell-based, Aspergillus brasiliensis
Protocol: as §1, §2, §3
A 7 to 14 days old Aspergillus brasiliensis culture on SA agar (25° C.±1° C.) is washed with 5 ml physiological NaCl, filtered by a glass funnel with glass wool and filled with physiological NaCl to 100 ml. The titre of the Aspergillus brasiliensis suspension is about 10^7 CFU/ml.
as §5, §6, §7, §8, §9

E. coli ATCC: 11229 = experiment: Bacterial count reduction test (method 1), E. coli; assay type: cell-based, Escherichia coli; settings: o/w cream, initial bacterial count 1.3 × 10^9
Protocol: as §1, §2, §3, §4, §5, §6, §7, §8, §9

C. albicans ATCC: 10231 = experiment: Bacterial count reduction test (method 1), C. albicans; assay type: cell-based, Candida albicans
Protocol: as §1, §2, §3
A 4 day old Candida albicans culture on SA-agar (II subculture) is washed with 5 ml physiological NaCl and adjusted according to a barium sulphate standard (cf. DVG Guidelines). The titer of the Candida albicans suspension is 10^8 CFU/ml.
as §5, §6, §7, §8, §9

[2] = Antimicrobial effect (preliminary work, general statements); settings: preliminary work / general statement
[3] = Water solubility (statement); assay type: physicochemical
[4] = o/w cream, initial bacterial count 1 × 10^9
[5] = o/w-Lotion, initial bacterial count 2.2 × 10^9
[6] = o/w cream, initial bacterial count 1.5 × 10^7
[7] = o/w-Lotion, initial bacterial count 7.7 × 10^7
[8] = o/w cream, initial bacterial count 4.1 × 10^8
[9] = o/w-Lotion, initial bacterial count 5.4 × 10^8

Compound | Growth of S. aureus ATCC: 6538 after 24 hours (S. aureus ATCC: 6538; [4]) | Growth of S. aureus ATCC: 6538 after 72 hours (S. aureus ATCC: 6538; [4]) | Growth of S. aureus ATCC: 6538 after 168 hours (S. aureus ATCC: 6538; [4]) | Growth of S. aureus ATCC: 6538 after 336 hours (S. aureus ATCC: 6538; [4]) | Growth of S. aureus ATCC: 6538 after 24 hours (S. aureus ATCC: 6538; [5]) | Growth of S. aureus ATCC: 6538 after 72 hours (S. aureus ATCC: 6538; [5]) | Growth of S. aureus ATCC: 6538 after 168 hours (S. aureus ATCC: 6538; [5]) | Growth of S. aureus ATCC: 6538 after 336 hours (S. aureus ATCC: 6538; [5]) | Growth of P. aeruginosa ATCC: 9027 after 24 hours (P. aeruginosa ATCC: 9027) | Growth of P. aeruginosa ATCC: 9027 after 72 hours (P. aeruginosa ATCC: 9027) | Growth of P. aeruginosa ATCC: 9027 after 168 hours (P. aeruginosa ATCC: 9027) | Growth of P. aeruginosa ATCC: 9027 after 336 hours (P. aeruginosa ATCC: 9027) | Growth of A. brasiliensis ATCC: 16404 after 24 hours [1, 6] | Growth of A. brasiliensis ATCC: 16404 after 72 hours [1, 6] | Growth of A. brasiliensis ATCC: 16404 after 168 hours [1, 6] | Growth of A. brasiliensis ATCC: 16404 after 336 hours [1, 6] | Growth of E. coli ATCC: 11229 after 24 hours (E. coli ATCC: 11229) | Growth of C. albicans ATCC: 10231 after 24 hours (C. albicans ATCC: 10231; [8]) | Growth of C. albicans ATCC: 10231 after 72 hours (C. albicans ATCC: 10231; [8]) | Growth of C. albicans ATCC: 10231 after 168 hours (C. albicans ATCC: 10231; [8]) | other results
CCCCC(CC)COC(=O)/C=C/c1ccc(O)c(OC)c1 (centres unmarked) [0.1% ferulic acid-2-ethylhexylester, ferulic acid (2-ethyl hexyl) ester] | ++++ (Massive growth About 10^5) | ++++ (Massive growth About 10^5) | ++++ (Massive growth About 10^5) | +++ (Heavy growth About 10^4) | R (Surface covered About 10^6) | ++++ (Massive growth About 10^5) | ++++ (Massive growth About 10^5) | ++++ (Massive growth About 10^5) | +++ (Heavy growth About 10^4) | ++++ (Massive growth About 10^5) | ++++ (Massive growth About 10^5) | ++++ (Massive growth About 10^5) | R (Surface covered About 10^6) | ++++ (Massive growth About 10^5) | ++++ (Massive growth About 10^5) | ++++ (Massive growth About 10^5) | R (Surface covered About 10^6) | ++++ (Massive growth About 10^5) | ++++ (Massive growth About 10^5) | ++++ (Massive growth About 10^5) | Growth of A. brasiliensis ATCC: 16404 after 24 hours [1, 7]: ++++ (Massive growth About 10^5); Growth of A. brasiliensis ATCC: 16404 after 72 hours [1, 7]: ++++ (Massive growth About 10^5); Growth of A. brasiliensis ATCC: 16404 after 168 hours [1, 7]: ++++ (Massive growth About 10^5); Growth of A. brasiliensis ATCC: 16404 after 336 hours [1, 7]: ++++ (Massive growth About 10^5); Growth of E. coli ATCC: 11229 after 72 hours (E. coli ATCC: 11229): ++++ (Massive growth About 10^5); Growth of E. coli ATCC: 11229 after 168 hours (E. coli ATCC: 11229): R (Surface covered About 10^6); Growth of E. coli ATCC: 11229 after 336 hours (E. coli ATCC: 11229): R (Surface covered About 10^6); Growth of C. albicans ATCC: 10231 after 336 hours (C. albicans ATCC: 10231; [8]): ++++ (Massive growth About 10^5); Growth of C. albicans ATCC: 10231 after 24 hours (C. albicans ATCC: 10231; [9]): R (Surface covered About 10^6); Growth of C. albicans ATCC: 10231 after 72 hours (C. albicans ATCC: 10231; [9]): R (Surface covered About 10^6); Growth of C. albicans ATCC: 10231 after 168 hours (C. albicans ATCC: 10231; [9]): ++++ (Massive growth About 10^5); Growth of C. albicans ATCC: 10231 after 336 hours (C. albicans ATCC: 10231; [9]): ++++ (Massive growth About 10^5)
CCOC(=O)/C=C/c1ccc(O)c(OC)c1 [0.1% ferulic acid-ethyl ester, ferulic acid ethyl ester] | ++++ (Massive growth About 10^5) | R (Surface covered About 10^6) | R (Surface covered About 10^6) | ++++ (Massive growth About 10^5) | ++++ (Massive growth About 10^5) | ++++ (Massive growth About 10^5) | +++ (Heavy growth About 10^4) | +++ (Heavy growth About 10^4) | ++++ (Massive growth About 10^5) | ++++ (Massive growth About 10^5) | ++++ (Massive growth About 10^5) | ++++ (Massive growth About 10^5) | ++++ (Massive growth About 10^5) | ++++ (Massive growth About 10^5) | ++++ (Massive growth About 10^5) | +++ (Heavy growth About 10^4) | R (Surface covered About 10^6) | R (Surface covered About 10^6) | R (Surface covered About 10^6) | R (Surface covered About 10^6) | Growth of A. brasiliensis ATCC: 16404 after 24 hours [1, 7]: ++ (Moderate growth About 10^3); Growth of A. brasiliensis ATCC: 16404 after 72 hours [1, 7]: +++ (Heavy growth About 10^4); Growth of A. brasiliensis ATCC: 16404 after 168 hours [1, 7]: +++ (Heavy growth About 10^4); Growth of A. brasiliensis ATCC: 16404 after 336 hours [1, 7]: ++++ (Massive growth About 10^5); Growth of E. coli ATCC: 11229 after 72 hours (E. coli ATCC: 11229): R (Surface covered About 10^6); Growth of E. coli ATCC: 11229 after 168 hours (E. coli ATCC: 11229): ++++ (Massive growth About 10^5); Growth of E. coli ATCC: 11229 after 336 hours (E. coli ATCC: 11229): R (Surface covered About 10^6); Antimicrobial effect, in words [2]: much weaker antimicrobial effect than ferulic acid itself; Water solubility, in words [3]: poor water solubility; Growth of C. albicans ATCC: 10231 after 336 hours (C. albicans ATCC: 10231; [8]): R (Surface covered About 10^6); Growth of C. albicans ATCC: 10231 after 24 hours (C. albicans ATCC: 10231; [9]): ++++ (Massive growth About 10^5); Growth of C. albicans ATCC: 10231 after 72 hours (C. albicans ATCC: 10231; [9]): ++++ (Massive growth About 10^5); Growth of C. albicans ATCC: 10231 after 168 hours (C. albicans ATCC: 10231; [9]): ++++ (Massive growth About 10^5); Growth of C. albicans ATCC: 10231 after 336 hours (C. albicans ATCC: 10231; [9]): ++++ (Massive growth About 10^5)
OCCCc1ccccc1 [0.75% 3-phenyl-propanol-1, 3-phenyl-1-propanol] | ++++ (Massive growth About 10^5) | ++++ (Massive growth About 10^5) | +++ (Heavy growth About 10^4) | – | – | – | – | – | – | – | – | – | ++++ (Massive growth About 10^5) | +++ (Heavy growth About 10^4) | + (Slight growth About 10^2) | – | ++ (Moderate growth About 10^3) | ++++ (Massive growth About 10^5) | ++++ (Massive growth About 10^5) | + (Slight growth About 10^2) | Antimicrobial effect, in words [2]: good anti-microbial effect

— patent US9907737B2, “Composition comprising ferulic acid ethyl ester and aryl alkanol” (L'AIR LIQUIDE, SOCIETE ANONYME POUR L'ETUDE ET …, priority 2013, dated 2018)
